The source of these data is patent US20250171447A1, “ADENOSINE RECEPTOR ANTAGONISTS, PHARMACEUTICAL COMPOSITIONS AND THEIR USE THEREOF” (Merck Sharp & Dohme LLC, priority 2022, published 2025).

The target in experiment [1] is human A2A adenosine receptor (Homo sapiens (Human), UniProt P29274). In words: A2A receptor affinity binding assay (radioligand filtration binding or SPA, [3H]SCH58261). The following applies: membranes from HEK293 or CHO cells expressing human A2A; Method (A) filtration or Method (B) SPA.
human A2A adenosine receptor, sequence (P29274 whole entry): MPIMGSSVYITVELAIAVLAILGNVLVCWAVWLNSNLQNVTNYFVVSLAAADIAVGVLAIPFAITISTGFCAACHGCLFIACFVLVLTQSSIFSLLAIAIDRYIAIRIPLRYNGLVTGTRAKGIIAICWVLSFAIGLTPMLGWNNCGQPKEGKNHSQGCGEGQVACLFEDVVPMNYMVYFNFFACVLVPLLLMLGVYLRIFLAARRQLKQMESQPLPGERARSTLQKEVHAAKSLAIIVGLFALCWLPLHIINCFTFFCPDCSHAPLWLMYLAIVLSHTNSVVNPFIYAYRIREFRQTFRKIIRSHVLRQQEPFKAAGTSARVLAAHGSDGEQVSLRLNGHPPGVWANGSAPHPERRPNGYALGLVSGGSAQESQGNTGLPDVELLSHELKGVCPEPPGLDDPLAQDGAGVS
In experiment [2] the target is human A2B adenosine receptor (Homo sapiens (Human), UniProt P29275). Briefly: A2B binding affinity radioligand filtration binding assay. To be noted: membranes from HEK293 cells expressing human A2B; tritiated proprietary A2B antagonist.
human A2B adenosine receptor, sequence (P29275 whole entry): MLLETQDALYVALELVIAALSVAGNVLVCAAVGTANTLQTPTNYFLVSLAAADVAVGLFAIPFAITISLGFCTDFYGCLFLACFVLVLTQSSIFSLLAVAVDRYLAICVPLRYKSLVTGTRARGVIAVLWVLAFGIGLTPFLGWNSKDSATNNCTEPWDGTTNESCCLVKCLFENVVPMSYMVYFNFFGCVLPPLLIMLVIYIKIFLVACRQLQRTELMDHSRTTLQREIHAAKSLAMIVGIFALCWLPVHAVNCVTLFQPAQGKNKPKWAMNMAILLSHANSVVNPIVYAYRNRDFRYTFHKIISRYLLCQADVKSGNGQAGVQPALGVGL

In the case of `COc1cccc2c1nc(N)n1nc([C@H]3C[C@H](c4ccc(C(C)(C)O)cc4)C3)nc21` [Ex-43, 2-(4-((1r,3r)-3-(5-amino-7-methoxy-[1,2,4]triazolo[1,5-c]quinazolin-2-yl)cyclobutyl)phenyl)propan-2-ol], the half-maximal inhibitory concentration (IC50) in experiment [1] is 10.9 nM; in experiment [2] it was 10.2 nM.

For `COc1cccc2c1nc(N)n1nc([C@H]3C[C@H](c4ncc(C(C)(C)N)nc4C)C3)nc21` [Ex-90, 2-((1r,3r)-3-(5-(2-aminopropan-2-yl)-3-methylpyrazin-2-yl)cyclobutyl)-7-methoxy-[1,2,4]triazolo[1,5-c]quinazolin-5-amine], the IC50 was determined as 0.6 nM in experiment [1] and 11.2 nM in experiment [2].

Regarding `COc1cccc2c1nc(N)n1nc([C@@H]3C[C@H]3c3cnn(C)c3)nc21` [Ex-2, 7-methoxy-2-((1r,2r)-2-(1-methyl-1H-pyrazol-4-yl)cyclopropyl)-[1,2,4]triazolo[1,5-c]quinazolin-5-amine], the values for the 50% inhibitory concentration (IC50) in experiment [1] and in experiment [2] were 2.6 nM and 50.4 nM, respectively.

In the case of `COc1cccc2c1nc(N)n1nc(C3CC3c3cnc(NCCO)nc3)nc21` (stereo not drawn) [Ex-22, 2-({5-[2-(5-amino-7-methoxy[1,2,4]triazolo [1,5-c]quinazolin-2-yl)cyclopropyl]pyrimidin-2-yl}amino)ethan-1-ol], the IC50 in experiment [1] came to 7.7 nM; in experiment [2] it was 133 nM.

Regarding `COc1cccc2c1nc(N)n1nc(C3CC3c3cncc(C(C)(C)O)c3)nc21` (stereo not drawn) [Ex-16, 2-{5-[2-(5-amino-7-methoxy[1,2,4]triazolo [1,5-c]quinazolin-2-yl)cyclopropyl]pyridin-3-yl} propan-2-ol], the results for the 50% inhibitory concentration (IC50) in experiment [1] and in experiment [2] were 4 nM and 15.5 nM, respectively.

With `CNC(=O)c1ccc(C2CC2c2nc3c4cccc(OC)c4nc(N)n3n2)cc1` (stereo not drawn) [Ex-19, 4-[2-(5-amino-7-methoxy[1,2,4]triazolo [1,5-c]quinazolin-2-yl)cyclopropyl]-N-methylbenzamide], the IC50 in experiment [1] came to 5.8 nM; in experiment [2] it was 32.9 nM.

With `COc1cc(F)cc2c1nc(N)n1nc(C3CC(c4ccc(C(C)(C)N)cn4)C3)nc21` (stereo not drawn) [Ex-69, 2-{3-[5-(2-aminopropan-2-yl)pyridin-2-yl]cyclobutyl}-9-fluoro-7-methoxy[1,2,4]triazolo[1,5-c]quinazolin-5-amine], the IC50 in experiment [1] worked out at 6.2 nM; in experiment [2], 0.3 nM.

In the case of `COc1cccc2c1nc(N)n1nc(C3CC3c3cncc(F)c3)nc21` (stereo not drawn) [Ex-18, 2-[2-(5-fluoropyridin-3-yl)cyclopropyl]-7-methoxy[1,2,4]triazolo [1,5-c]quinazolin-5-amine], the figures for the IC50 in experiment [1] and in experiment [2] were 5.5 nM and 252 nM, respectively.

As to `COc1cccc2c1nc(N)n1nc([C@H]3C[C@@H](c4ccc(C(C)(C)N)cn4)C3)nc21` [Ex-67, 2-((1s,3s)-3-(5-(2-aminopropan-2-yl)pyridin-2-yl)cyclobutyl)-7-methoxy-[1,2,4]triazolo[1,5-c]quinazolin-5-amine], the IC50 in experiment [1] was found to be 4.3 nM; in experiment [2] it was 1.8 nM.

For the molecule `COc1cccc2c1nc(N)n1nc([C@H]3C[C@@](N)(c4ccc(C(C)(C)O)cn4)C3)nc21` [Ex-138, 2-(6-((l1,3r)-1-amino-3-(5-amino-7-methoxy-[1,2,4]triazolo[1,5-c]quinazolin-2-yl)cyclobutyl)pyridin-3-yl)propan-2-ol], the concentration for half-maximal inhibition (IC50) was determined as 9.8 nM in experiment [1] and 12.5 nM in experiment [2].

`COc1cccc2c1nc(N)n1nc(C3CC3c3ccc4nnc(C)n4c3)nc21` (stereo not drawn) [Ex-9, 7-methoxy-2-[2-(3-methyl[1,2,4]triazolo [4,3-a]pyridin-6-yl)cyclopropyl][1,2,4] triazolo[1,5-c] quinazolin-5-amine]: the IC50 turned out to be 2 nM in experiment [1] and 337 nM in experiment [2].

For `COc1cccc2c1nc(N)n1nc(C3CC3c3cnn(CCO)c3)nc21` (stereo not drawn) [Ex-23, 2-{4-[2-(5-amino-7-methoxy[1,2,4]triazolo [1,5-c]quinazolin-2-yl)cyclopropyl]-1H-pyrazol-1-yl} ethan-1-ol], the IC50 in experiment [1] is 8.3 nM; in experiment [2], 118 nM.
